Results reported in PubChem BioAssay (NCI).
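In this assay, cells in 96-well plates receive the compound at five concentrations for 48 hours. Endpoints are linearly interpolated between the surrounding concentrations. Definition used: TGI = concentration required for complete inhibition of growth.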

How the values were obtained:
Experiment in all cases: DTP human tumour cell line panel, 48 h
[1] = test system: IGROV1 ovarian
[2] = test system: SNB-78 CNS
[3] = test system: K-562 leukemia
[4] = test system: HL-60(TB) leukemia
[5] = test system: MALME-3M melanoma
[6] = test system: EKVX NSCLC
[7] = test system: SW-620 colon
[8] = test system: LOX IMVI melanoma
[9] = test system: UACC-257 melanoma
[10] = test system: HOP-92 NSCLC
[11] = test system: OVCAR-3 ovarian
[12] = test system: KM12 colon
[13] = test system: TK-10 renal
[14] = test system: SR leukemia
[15] = test system: SNB-75 CNS
[16] = test system: NCI-H226 lung
[17] = test system: MCF7 breast
[18] = test system: NCI-H460 lung
[19] = test system: HCC-2998 colon
[20] = test system: T-47D breast

SMILES | TGI [1] | TGI [2] | TGI [3] | TGI [4] | TGI [5] | TGI [6] | TGI [7] | TGI [8] | TGI [9] | TGI [10] | TGI [11] | TGI [12] | TGI [13] | TGI [14] | TGI [15] | TGI [16] | TGI [17] | TGI [18] | TGI [19] | TGI [20]
O=C(Nc1ccc([N+](=O)[O-])cc1[N+](=O)[O-])C(=O)C(C(=O)c1ccc(Cl)c(Cl)c1)C1OC(=O)c2ccccc21 (stereo not drawn) | 84.7 µM | 93.3 µM | 82 µM | 85.3 µM | > 100 µM | > 100 µM | 54.6 µM | 41.4 µM | 68.4 µM | 9.46 µM | 93.1 µM | 37 µM | 93.7 µM | > 100 µM | > 100 µM | 36 µM |  |  |  | 
CCN(CC)/[N+]([O-])=N/OCOC | > 100 µM |  | > 100 µM | > 100 µM | > 100 µM | > 100 µM | > 100 µM | > 100 µM | > 100 µM | > 100 µM | > 100 µM | > 100 µM | > 100 µM | > 100 µM | > 100 µM | > 100 µM | > 100 µM | > 100 µM | > 100 µM | > 100 µM
COc1ccc2cc(CN3CCC(C4CCN(Cc5ccc6cc(OC)ccc6c5)CC4)CC3)ccc2c1 | 21.6 µM |  | 2.12 µM | 4.31 µM | 4.51 µM | 29.8 µM | 7.98 µM | 5.66 µM | 3.88 µM | 8.91 µM | 9.74 µM | 6.31 µM | 6.18 µM | 3.6 µM | 11 µM | 38.3 µM | > 100 µM | 5.04 µM | 0.367 µM | 4.45 µM
CC(NP(=O)(c1ccccc1)c1ccccc1)c1ccccc1 (stereo not drawn) | > 100 µM |  | > 100 µM | > 100 µM | > 100 µM | > 100 µM | > 100 µM | > 100 µM | > 100 µM | > 100 µM | > 100 µM | > 100 µM | > 100 µM | > 100 µM | > 100 µM | > 100 µM | > 100 µM | > 100 µM | > 100 µM | > 100 µM
N#Cc1c(N)nc(SCc2ccccc2)c(C#N)c1-c1ccc(O)cc1 | 29.9 µM |  | 37.8 µM | 32.8 µM | 30 µM | 26.3 µM | 41.6 µM | 43 µM | > 52.4 µM | 22 µM | 33.4 µM | 25.8 µM | > 64.7 µM | 34.7 µM | 38.9 µM | 48.2 µM | 30.6 µM | > 65.8 µM | > 55.6 µM | 23.4 µM
CC(C)=CCC/C(C)=C/Cc1c(O)c(C)cc2c1[nH]c1cc(O)ccc12 | > 25 µM | > 25 µM | > 25 µM | > 25 µM | > 25 µM |  | > 25 µM | > 25 µM |  | > 25 µM | > 25 µM | > 25 µM | > 25 µM | > 25 µM |  | > 25 µM |  | > 25 µM | > 25 µM | 
C=CC(=O)Nc1ccccc1CC(c1c[nH]c2ccccc12)c1c[nH]c2ccccc12 | 36.6 µM | 43.8 µM | 49.2 µM |  | 33.3 µM | 51 µM | 39.2 µM | 36.3 µM | 40.5 µM |  | 32.6 µM | 38.7 µM | 59.1 µM |  | 28.4 µM | 40.1 µM |  |  | 33.4 µM | 
O=NN1CCN=C1c1ccc([N+](=O)[O-])cc1 | > 100 µM | > 100 µM | > 100 µM | > 100 µM | > 100 µM |  | > 100 µM | > 100 µM | > 100 µM | > 100 µM | > 100 µM | > 100 µM | > 100 µM | > 100 µM | > 100 µM | > 100 µM |  | > 100 µM | > 100 µM | 
Clc1ccc(C(Cc2ccccc2)c2c(Cl)nc(N3CCNCC3)nc2Cl)cc1 (stereo not drawn) | 24.2 µM |  | 17.8 µM | 10.7 µM | 28.4 µM | 32.2 µM | 27.7 µM | 10.6 µM | 34 µM | 25.7 µM | 28.2 µM | 20.7 µM | 34.3 µM | 3.71 µM | 27.2 µM | 40.7 µM | 20 µM | 30.2 µM | 26 µM | 29.6 µM
CCOC(=O)C1=C(O)C(=O)c2ccoc2C1=O | > 100 µM | > 100 µM | > 100 µM | > 100 µM | > 100 µM | > 100 µM | > 100 µM | > 100 µM | > 100 µM | > 100 µM | > 100 µM | > 100 µM | > 100 µM | > 100 µM | > 100 µM | > 100 µM |  | > 100 µM | > 100 µM | 
CCCCCCCCCCCCCCCCCCOCC(C[N+]1(C)CCC(O)CC1)OCC (stereo not drawn) | 21 µM | 14.7 µM | 19.1 µM | 8.42 µM | 28.8 µM | 46.3 µM | 35.5 µM |  | 28 µM | 4.49 µM | 15.4 µM |  | 20.5 µM | 3.73 µM | 19.2 µM | 21.4 µM |  |  | 31.7 µM | 
CC(C)[C@@H]1CC[C@@H](C)C[C@H]1OC(=O)/C=C1\C(C(=O)O[C@@H]2C[C@H](C)CC[C@H]2C(C)C)[C@H]2C=C[C@@H]1O2 (stereo partly drawn) | > 100 µM |  | > 100 µM | 76.1 µM | > 100 µM | > 100 µM | > 100 µM | > 100 µM | > 100 µM | > 100 µM | > 100 µM | > 100 µM | > 100 µM | > 100 µM | > 100 µM | > 100 µM | 71.6 µM | > 100 µM | > 100 µM | > 100 µM
COc1ccc2c(C)cc(N/N=C/c3ccc(C)s3)nc2c1 | 37.9 µM |  | > 100 µM | > 56.2 µM | > 69.6 µM | 32.2 µM | > 48.4 µM | 11.1 µM | > 52.9 µM | > 51.6 µM | 8.88 µM | > 57 µM | > 54.3 µM | 31 µM | > 83.9 µM | 51.7 µM | 25.3 µM | 20 µM | 19.6 µM | 26 µM
